Assays:
cocklebur = assay: Test B pre/postemergence cocklebur; format: in vivo, Xanthium strumarium
How it was run: (§1)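 Herbicidal effect was estimated by eye on a ten-point control scale after plants spent twelve to sixteen days in a greenhouse following soil or foliar treatment. Foliar sprays targeted plants at one to four leaves; all doses were formulated in a non-phytotoxic solvent with surfactant.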

corn = assay: Test B pre/postemergence corn; format: in vivo, Zea mays
How it was run: as §1

crabgrass = assay: Test B pre/postemergence crabgrass; format: in vivo, Digitaria sanguinalis
How it was run: as §1

giant foxtail = assay: Test B pre/postemergence giant foxtail; format: in vivo, Setaria faberii
How it was run: as §1

morningglory = assay: Test B pre/postemergence morningglory; format: in vivo, Ipomoea hederacea
How it was run: as §1

pigweed = assay: Test B pre/postemergence pigweed; format: in vivo, Amaranthus retroflexus
How it was run: as §1

rape = assay: Test B pre/postemergence rape; format: in vivo, Brassica napus
How it was run: as §1

soybean = assay: Test B pre/postemergence soybean; format: in vivo, Glycine max
How it was run: as §1

sugar beet = assay: Test B pre/postemergence sugar beet; format: in vivo, Beta vulgaris
How it was run: as §1

velvetleaf = assay: Test B pre/postemergence velvetleaf; format: in vivo, Abutilon theophrasti
How it was run: as §1

wheat = assay: Test B pre/postemergence wheat; format: in vivo, Triticum aestivum
How it was run: as §1

wild oat = assay: Test B pre/postemergence wild oat; format: in vivo, Avena fatua
How it was run: as §1

purple nutsedge = assay: Test B pre/postemergence purple nutsedge; format: in vivo, Cyperus rotundus
How it was run: as §1

rice = assay: Test B flood test rice; format: in vivo, Oryza sativa; settings: Pre-emergence
How it was run: (§2)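 Plants were grown to the 2-leaf stage before treatment with test chemical, then held in a greenhouse for twelve to sixteen days. Injury was visually rated against untreated controls on a 0–10 scale, where 0 is no effect and 10 is complete control.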

duck salad = assay: Test B flood test duck salad; format: in vivo, Heteranthera limosa; settings: Pre-emergence
How it was run: as §2

bamyardgrass = assay: Test B flood test barnyardgrass; format: in vivo, Echinochloa crus-galli; settings: Pre-emergence
How it was run: as §2

[1] = Preemergence, Rate 62 g/ha, scale of 0 to 10 where 0 is no effect and 10 is complete control
[2] = Preemergence, Rate 250 g/ha, scale of 0 to 10 where 0 is no effect and 10 is complete control
[3] = Preemergence, Rate 500 g/ha, scale of 0 to 10 where 0 is no effect and 10 is complete control
[4] = Rate 62 g/ha, Postemergence, scale 0 to 10, 0 no effect, 10 complete control
[5] = Rate 125 g/ha, Postemergence, scale of 0 to 10 where 0 is no effect and 10 is complete control
[6] = Rate 250 g/ha, Postemergence, scale of 0 to 10 where 0 is no effect and 10 is complete control
[7] = Rate 500 g/ha, Postemergence, scale 0 to 10, 0 no effect, 10 complete control
[8] = Rate 1000 g/ha, scale 0 to 10 (0 no effect, 10 complete control)
[9] = Rate 125 g/ha, flood test species, scale 0 to 10 where 0 is no effect and 10 is complete control
[10] = Rate 250 g/ha, flood-test species, scale 0 to 10, 0 is no effect, 10 is complete control
[11] = Rate 500 g/ha, flood test species, scale 0 to 10 (0 no effect, 10 complete control)

Cc1ccccc1-n1c(=O)on(C(=O)N(c2ccc3ccccc3c2)C(C)C)c1=O [Compound 306]
Cocklebur plant response rating (cocklebur; [1]): 0 | Cocklebur plant response rating (0 to 10 scale) (cocklebur; Preemergence, Rate 125 g/ha): 0 | Cocklebur plant response rating (cocklebur; [2]): 0 | Cocklebur plant response rating (cocklebur; [3]): 0 | Cocklebur plant response rating (cocklebur; [4]): 0 | Cocklebur plant response rating (cocklebur; [5]): 0 | Plant response rating, Cocklebur (cocklebur; [6]): 0 | Cocklebur plant response rating (cocklebur; [7]): 0 | Corn plant response rating (corn; [1]): 0 | Corn plant response rating (0 to 10 scale) (corn; Preemergence, Rate 125 g/ha): 0 | Corn plant response rating (corn; [2]): 0 | Corn plant response rating (corn; [3]): 0 | Corn plant response rating (corn; [4]): 0 | Corn plant response rating (corn; [5]): 0 | Plant response rating, Corn (corn; [6]): 0 | Corn plant response rating (corn; [7]): 0 | Crabgrass plant response rating (crabgrass; [1]): 0 | Crabgrass plant response rating (0 to 10 scale) (crabgrass; Preemergence, Rate 125 g/ha): 0 | Crabgrass plant response rating (crabgrass; [2]): 0 | Crabgrass plant response rating (crabgrass; [3]): 0 | Crabgrass plant response rating (crabgrass; [4]): 0 | Crabgrass plant response rating (crabgrass; [5]): 0 | Plant response rating, Crabgrass (crabgrass; [6]): 0 | Giant foxtail plant response rating (giant foxtail; [1]): 2 | Giant foxtail plant response rating (0 to 10 scale) (giant foxtail; Preemergence, Rate 125 g/ha): 2 | Giant foxtail plant response rating (giant foxtail; [2]): 8 | Giant foxtail plant response rating (giant foxtail; [3]): 9 | Giant foxtail plant response rating (giant foxtail; [4]): 0 | Giant foxtail plant response rating (giant foxtail; [5]): 0 | Plant response rating, Giant foxtail (giant foxtail; [6]): 0 | Morningglory plant response rating (morningglory; [1]): 0 | Morningglory plant response rating (0 to 10 scale) (morningglory; Preemergence, Rate 125 g/ha): 0 | Morningglory plant response rating (morningglory; [2]): 0 | Morningglory plant response rating (morningglory; [3]): 0 | Morningglory plant response rating (morningglory; [4]): 2 | Morningglory plant response rating (morningglory; [5]): 2 | Redroot pigweed plant response rating (pigweed; [1]): 0 | Redroot pigweed plant response rating (0 to 10 scale) (pigweed; Preemergence, Rate 125 g/ha): 0 | Redroot pigweed plant response rating (pigweed; [2]): 0 | Redroot pigweed plant response rating (pigweed; [3]): 0 | Redroot pigweed plant response rating (pigweed; [4]): 0 | Redroot pigweed plant response rating (pigweed; [5]): 0 | Plant response rating, Redroot pigweed (pigweed; [6]): 0 | Rape plant response rating (rape; [1]): 0 | Rape plant response rating (0 to 10 scale) (rape; Preemergence, Rate 125 g/ha): 0 | Rape plant response rating (rape; [2]): 0 | Rape plant response rating (rape; [3]): 0 | Rape plant response rating (rape; [4]): 0 | Rape plant response rating (rape; [5]): 0 | Plant response rating, Rape (rape; [6]): 0 | Soybean plant response rating (soybean; [1]): 0 | Soybean plant response rating (0 to 10 scale) (soybean; Preemergence, Rate 125 g/ha): 0 | Soybean plant response rating (soybean; [2]): 0 | Soybean plant response rating (soybean; [3]): 0 | Soybean plant response rating (soybean; [4]): 1 | Soybean plant response rating (soybean; [5]): 2 | Plant response rating, Soybean (soybean; [6]): 2 | Sugarbeets plant response rating (sugar beet; [1]): 0 | Sugarbeets plant response rating (0 to 10 scale) (sugar beet; Preemergence, Rate 125 g/ha): 0 | Sugarbeets plant response rating (sugar beet; [2]): 0 | Sugarbeets plant response rating (sugar beet; [3]): 0 | Sugarbeets plant response rating (sugar beet; [4]): 0 | Sugarbeets plant response rating (sugar beet; [5]): 0 | Plant response rating, Sugarbeets (sugar beet; [6]): 0 | Velvetleaf plant response rating (velvetleaf; [1]): 0 | Velvetleaf plant response rating (0 to 10 scale) (velvetleaf; Preemergence, Rate 125 g/ha): 0 | Velvetleaf plant response rating (velvetleaf; [2]): 0 | Velvetleaf plant response rating (velvetleaf; [3]): 0 | Velvetleaf plant response rating (velvetleaf; [4]): 0 | Velvetleaf plant response rating (velvetleaf; [5]): 0 | Plant response rating, Velvetleaf (velvetleaf; [6]): 0 | Wheat plant response rating (wheat; [1]): 0 | Wheat plant response rating (0 to 10 scale) (wheat; Preemergence, Rate 125 g/ha): 0 | Wheat plant response rating (wheat; [2]): 0 | Wheat plant response rating (wheat; [3]): 0 | Wheat plant response rating (wheat; [4]): 0 | Wheat plant response rating (wheat; [5]): 0 | Plant response rating, Wheat (wheat; [6]): 0 | Wild oats plant response rating (wild oat; [1]): 0 | Wild oats plant response rating (0 to 10 scale) (wild oat; Preemergence, Rate 125 g/ha): 0 | Wild oats plant response rating (wild oat; [2]): 0 | Wild oats plant response rating (wild oat; [3]): 0 | Wild oats plant response rating (wild oat; [4]): 0 | Wild oats plant response rating (wild oat; [5]): 0 | Plant response rating, Wild oats (wild oat; [6]): 0 | Nutsedge plant response rating (purple nutsedge; [1]): 0 | Nutsedge plant response rating (0 to 10 scale) (purple nutsedge; Preemergence, Rate 125 g/ha): 0 | Nutsedge plant response rating (purple nutsedge; [2]): 0 | Nutsedge plant response rating (purple nutsedge; [3]): 0 | Nutsedge plant response rating (purple nutsedge; [4]): 0 | Nutsedge plant response rating (purple nutsedge; [5]): 0 | Plant response rating, Nutsedge (purple nutsedge; [6]): 0 | Rice plant response rating (rice; [8]): 0 | Rice plant response rating (rice; [9]): 0 | Rice plant response rating (rice; [10]): 0 | Rice plant response rating (rice; [11]): 0 | Ducksalad plant response rating (duck salad; [8]): 0 | Ducksalad plant response rating (duck salad; [9]): 0 | Ducksalad plant response rating (duck salad; [10]): 0 | Ducksalad plant response rating (duck salad; [11]): 0 | Barnyardgrass plant response rating (bamyardgrass; [8]): 0 | Barnyardgrass plant response rating (bamyardgrass; [9]): 0 | Barnyardgrass plant response rating (bamyardgrass; [10]): 0 | Barnyardgrass plant response rating (bamyardgrass; [11]): 0

— US6737383B1, “Herbicidal oxadiazolidines” (priority 1999, dated 2004)
